Consider six compounds from patent US9655887B2, “Pharmaceutical composition and the use thereof, and application regime of said pharmaceutical composition for on-demand contraception” (BAYER PHARMA AKTIENGESELLSCHAFT, priority 2013, dated 2017).

pIC50: −log10 of the molar value. Marks after values point to notes of the source that are not given here.

The target in test [1] is EP4 subtype of the human PGE2 receptor (hEP4) (Homo sapiens, UniProt P35408). The experiment in a line: cAMP antagonism test, human prostaglandin E2 (subtype EP4) receptor signal. It is filed as cell-based. Conditions: selectivity towards hEP4, IC50 measured by cAMP antagonism test. The source says:
2. Detection of Antagonism to the Human Prostaglandin E2 (Subtype EP4) Receptor Signal
The binding of PGE2 to the EP4 subtype of the human PGE2 receptor induces the activation of membrane-located adenylate cyclases and leads to the formation of cAMP. In the presence of the phosphodiesterase inhibitor IBMX, the cAMP accumulated owing to this stimulation and released by cell lysis is used in a competitive detection method. In this test, the cAMP present in the lysate competes with a fluorescence-labelled cAMP (cAMP-d2) for binding to an Eu cryptate-labelled anti-cAMP antibody.
(§1) In the absence of cellular cAMP a maximal signal is produced, which is attributable to the binding of this cAMP-d2 molecule to the antibody. After excitation of the […] at 337 nm, there is a fluorescence resonance energy transfer (FRET) to the Eu cryptate molecules of the anti-cAMP antibody (labelled therewith), followed by a long-lasting emission signal at 665 nm (and at […]). Both signals are measured in a suitable measurement instrument with a time delay, i.e. after decay of the background fluorescence. Any increase in the low FRET signal caused by prostaglandin E2 administration (measured as well ratio change=emission665nm/emission620nm*10000) indicates the action of antagonists.
2.2.1. Test for Antagonism (Data Per Well of a 384-Well Plate):
To a test plate with the substance solutions already added (0.05 μl; 100% DMSO, concentration range from 0.8 nM-16.5 uM) were added 4 μl of a cAMP-d2/cell suspension (312500 cells/ml). After a 20-minute preincubation at room temperature (RT), 2 μl of a 3×PGE2 solution (0.3 nM, in PBS-IBMX) were added and incubated in the presence of the agonist for a further 60 mins at RT (volume: ˜6 μl). Next the reaction was stopped by addition of 2 μl of lysis buffer and incubated for a further 20 mins at RT before the actual measurement (volume: ˜8 μl).

For the next test, the target named is T1, human PGD receptor (hDP) (Homo sapiens, UniProt Q13258).
T1 sequence (Q13258 1-359): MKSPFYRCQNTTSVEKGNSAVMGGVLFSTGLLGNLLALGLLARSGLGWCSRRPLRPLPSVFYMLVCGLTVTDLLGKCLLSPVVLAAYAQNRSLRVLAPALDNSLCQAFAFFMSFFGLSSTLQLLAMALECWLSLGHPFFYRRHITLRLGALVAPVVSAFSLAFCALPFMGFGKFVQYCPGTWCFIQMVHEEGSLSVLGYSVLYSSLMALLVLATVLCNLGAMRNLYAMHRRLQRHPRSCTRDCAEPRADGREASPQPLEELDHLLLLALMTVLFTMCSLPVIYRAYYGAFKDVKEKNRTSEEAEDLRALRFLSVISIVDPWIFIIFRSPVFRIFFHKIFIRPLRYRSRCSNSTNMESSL
Briefly: cAMP antagonism test, human prostaglandin D receptor signal. It is filed as cell-based. The note with it: selectivity towards hDP, IC50 measured by cAMP antagonism test.
Excerpt: 3. Detection of Antagonism to the Human Prostaglandin D Receptor Signal
The binding of prostaglandin D2 to the human PGD receptor induces the activation of membrane-located adenylate cyclases and leads to the formation of cAMP. In the presence of the phosphodiesterase inhibitor IBMX, the cAMP accumulated owing to this stimulation and released by cell lysis is used in a competitive detection method. In this test, the cAMP present in the lysate competes with a fluorescence-labelled cAMP (cAMP-d2) for binding to an Eu cryptate-labelled anti-cAMP antibody.
as §1, with “cellular cAMP,” for “cellular cAMP”
3.2.1. Test for Antagonism (Data Per Well of a 384-Well Plate):
To a test plate with the substance solutions already added (0.05 μl; 100% DMSO, concentration range from 0.8 nM-16.5 nM) were added 4 μl of a cAMP-d2/cell suspension (625000 cells/ml). After a 20-minute preincubation at room temperature (RT), 2 μl of a 3×PGD2 solution (6 nM, in PBS-IBMX) were added and incubated in the presence of the agonist for a further 30 mins at RT (volume: ˜6 μl). Next the reaction was stopped by addition of 2 μl of lysis buffer and incubated for a further 20 mins at RT before the actual measurement (volume: ˜8 μl).

The target in test [2] is EP2 subtype of the human PGE2 receptor (hEP2 receptor) (Homo sapiens, UniProt P43116). The experiment in a line: cAMP antagonism test, human prostaglandin E2 (subtype EP2) receptor signal. Format: cell-based. The method in brief:
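Cells (625000 cells/ml, mixed with cAMP-d2) were preincubated 20 min at RT with compound ([…]). They were then stimulated 60 min at RT with a 3× PGE2 solution (1.5 nM) in PBS-IBMX and lysed for 20 min. cAMP was read by HTRF as the 665/620 nm ratio ×10000, with antagonism seen as a rise in FRET signal.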

Test [3] relates to fertility of the female rat. Briefly: Single administration of EP2 receptor antagonists and COX inhibitors alone or in combination, fertility of the rat (implantation sites). Format: in vivo, female Han Wistar rats. The method, then: 6. Effect of a Single Administration of EP2 Receptor Antagonists and COX Inhibitors Alone or in Combination on the Fertility of the Rat
In the experiments below, female Han Wistar rats having a weight of 200-270 g were used. The animals were kept in Makrolon cages in rooms with controlled lighting (12 hours of darkness; 12 hours of light), fed with a standard diet and provided with water ad libitum.
EP2 receptor antagonists were dissolved in benzyl benzoate/castor oil (1+4 v/v), and the dose was administered in a volume of 1 ml/kg of body weight s.c. Optionally, EP2 receptor antagonists were also administered orally in the same vehicle as the COX inhibitors (see below). […]
The COX inhibitors were suspended in a carrier liquid (85 mg of Myrj®53 polyoxyl(50)stearate; CAS No. 9004-99-3) in 100 ml of 0.9% w/v NaCl solution), and the dose corresponding to the treatment group was administered in a volume of 2 ml/kg of body weight.
Prior to the start of the experiment, two cycles were observed using vaginal swabs. Only animals having a regular 4-day cycle were used in the experiment. The animals were randomized to the treatment groups.
The animals were treated once in the proestrus, the day in the cycle when the LH peak occurs in the evening, with the test substances either alone or in combination. On the evening of the proestrus, the female animals mated with a male rat. Successive mating was confirmed by detection of vaginal sperms in the vaginal swab the next morning. The effect on fertility was determined 9-15 days after mating by the number of implantation sites of the animals. […]

Setting [4] is: Table 6.4, single administration in proestrus, E16 4 mg/animal, 17:00, data of n = 4 animals.
[5] abbreviates: Table 6.5, single administration in proestrus, E16 0.25 mg/animal, 17:00.
[6] abbreviates: Table 6.5, single administration in proestrus, E16 0.5 mg/animal, 17:00.
[7] abbreviates: Table 6.5, single administration in proestrus, E16 1 mg/animal, 17:00.
[8] abbreviates: Table 6.5, single administration in proestrus, E16 2 mg/animal, 17:00, data of n = 4 animals.
Where [9] appears, read: Table 6.5, single administration in proestrus, E16 4 mg/animal, 17:00.
[10] abbreviates: proestrus, oral administration of EP2 receptor antagonist 2 mg/animal, divided to 16:00 and 17:00.
The mark [11] stands for this setting: single administration in proestrus, E16 1 mg/animal, 16:00.
Where [12] appears, read: single administration in proestrus, E16 2 mg/animal, 16:00.
Setting [13] is: single administration in proestrus, E16 4 mg/animal, 7:00.
The mark [14] stands for this setting: single administration in proestrus, E16 4 mg/animal, 13:00, data of n = 5 animals.
The mark [15] stands for this setting: single administration in proestrus, E16 4 mg/animal, 16:00.
[16] abbreviates: single administration in proestrus, E16 8 mg/animal, 16:00, data of n = 5 animals.
Setting [17] is: single administration in proestrus, E161 2 mg/animal, 18:00.
[18] abbreviates: Table 6.4, single administration in proestrus, Meloxicam 0.25 mg/animal, 17:00, data of n = 5 animals.
The mark [19] stands for this setting: Table 6.4, single administration in proestrus, Meloxicam 0.5 mg/animal, 17:00.
Where [20] appears, read: Table 6.4, single administration in proestrus, Meloxicam 1 mg/animal, 17:00.
Setting [21] is: Table 6.4, single administration in proestrus, Meloxicam 2 mg/animal, 17:00, data of n = 5 animals.
Where [22] appears, read: Table 6.5, single administration in proestrus, Meloxicam 2 mg/animal, 17:00, data of n = 5 animals.

EP2 subtype of the human PGE2 receptor (hEP2 receptor), sequence (P43116 whole entry): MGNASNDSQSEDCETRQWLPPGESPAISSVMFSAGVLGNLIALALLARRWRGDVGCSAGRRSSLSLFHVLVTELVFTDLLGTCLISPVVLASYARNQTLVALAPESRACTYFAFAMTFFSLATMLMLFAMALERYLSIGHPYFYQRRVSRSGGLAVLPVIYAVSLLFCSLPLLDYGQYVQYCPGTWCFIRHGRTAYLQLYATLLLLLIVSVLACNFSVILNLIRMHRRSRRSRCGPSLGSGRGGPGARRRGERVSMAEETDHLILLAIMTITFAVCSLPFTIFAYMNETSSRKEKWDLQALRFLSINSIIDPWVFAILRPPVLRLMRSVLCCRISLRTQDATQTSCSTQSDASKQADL
EP4 subtype of the human PGE2 receptor (hEP4), sequence (P35408 whole entry): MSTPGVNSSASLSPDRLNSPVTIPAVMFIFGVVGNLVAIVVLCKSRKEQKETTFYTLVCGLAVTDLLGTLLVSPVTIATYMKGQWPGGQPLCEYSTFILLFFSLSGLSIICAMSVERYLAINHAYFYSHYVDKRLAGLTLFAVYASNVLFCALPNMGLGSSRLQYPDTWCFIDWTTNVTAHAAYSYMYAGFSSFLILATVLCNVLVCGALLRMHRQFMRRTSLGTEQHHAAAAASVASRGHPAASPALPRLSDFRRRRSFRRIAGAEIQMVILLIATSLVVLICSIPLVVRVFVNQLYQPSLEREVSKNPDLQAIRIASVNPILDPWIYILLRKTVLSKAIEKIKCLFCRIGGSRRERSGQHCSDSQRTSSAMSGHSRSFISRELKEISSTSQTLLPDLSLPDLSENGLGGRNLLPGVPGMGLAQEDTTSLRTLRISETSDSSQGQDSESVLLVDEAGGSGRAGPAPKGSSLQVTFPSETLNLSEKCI

In the case of `COC(C)CNC(=O)c1ccc2nn(CC3CN(C(=O)c4ccc(Cl)cc4)C3)cc2c1C` (single isomer, unassigned) [Example 140, (S or R)-2-{[1-(4-chlorobenzoyl)azetidin-3-yl]methyl}-N-(2-methoxypropyl)-4-methyl-2H-indazole-5-carboxamide], the “Selectivity hEP2/hEP4” value in test [1] is “xxx (xxx >100)”. Also, on human PGD receptor (hDP), the “Selectivity hEP2/hDP” value is recorded as “xxx (xxx >100)”.
In the case of `COCCNC(=O)c1ccc2nn(CC3CCN(C(=O)c4ccc(Oc5ccc(C(F)(F)F)cc5)cc4)CC3)cc2c1C` [Example E16, N-(2-methoxyethyl)-4-methyl-2-[(1-{4-[4-(trifluoromethyl)phenoxy]benzoyl}piperidin-4-yl)methyl]-2H-indazole-5-carboxamide], the negative logarithm of the IC50 (pIC50) in test [2] is less than 7.30. The “Absolute implantations number of 6 animals” value (shortened to “Absolute implantations number”) in test [3] (setting [4]) is on record as 22**; in test [3] (setting [5]), 78; in test [3] (setting [6]), 60; in test [3] (setting [7]) it was 42; in test [3] (setting [8]), 30**; in test [3] (setting [9]) it was 32. In addition, the “Absolute implantations number” value is 63 in test [3] (setting [10]); 62 in test [3] (setting [11]); 71 in test [3] (setting [12]); 54 in test [3] (setting [13]); 49* in test [3] (setting [14]); 50 in test [3] (setting [15]). Also, the “Absolute implantations number” value in test [3] (setting [16]) is recorded as 43*. Moreover, the “Implantations per animal (mean ± SD)” value is reported as 5.5 ± 5.4 in test [3] (setting [4]); 13 ± 2.3 in test [3] (setting [5]); 10 ± 2.8 in test [3] (setting [6]); 7 ± 5.4 in test [3] (setting [7]); 7.5 ± 1.7 in test [3] (setting [8]); 5.3 ± 4.5 in test [3] (setting [9]). Besides, the “Implantations per animal (mean ± SD)” value in test [3] (setting [10]) amounted to 10.5 ± 1.5; in test [3] (setting [11]), 10.3 ± 2.5; in test [3] (setting [12]) it was 11.8 ± 2.1; in test [3] (setting [13]) it was 9.0 ± 3.4; in test [3] (setting [14]), 8.2 ± 3.1; in test [3] (setting [15]), 8.3 ± 3.4. The “Implantations per animal (mean ± SD)” value in test [3] (setting [16]) came to 8.6 ± 2.8.
The compound `COCCNC(=O)c1ccc2nn(CC3CCN(C(=O)c4ccc(Oc5ccc(C(F)(F)F)cn5)cc4)CC3)cc2c1C` [Example E161, N-(2-methoxyethyl)-4-methyl-2-{[1-(4-{[5-(trifluoromethyl)pyridin-2-yl]oxy}benzoyl)piperidin-4-yl]methyl}-2H-indazole-5-carboxamide] showed a pIC50 in test [2] of less than 7.30. The “Absolute implantations number” value in test [3] (setting [10]) is 69; in test [3] (setting [17]) it was 55. The “Implantations per animal (mean ± SD)” value in test [3] (setting [10]) stood at 11.5 ± 3.1; in test [3] (setting [17]) it was 9.0 ± 3.4.
In test [2], `COCCNC(=O)c1ccc2nn(CC3CCN(C(=O)c4ccc(-c5ccncc5)c(C)c4)CC3)cc2c1C` [Example E206, N-(2-methoxyethyl)-4-methyl-2-({1-[3-methyl-4-(4-pyridyl)benzoyl]piperidin-4-yl}-methyl)-2H-indazole-5-carboxamide] showed a pIC50 of less than 7.30.
As to `COCCNC(=O)c1ccc2nn(CC3CCN(C(=O)c4ccc(-c5ccccc5)c(C)c4)CC3)cc2c1C` [Example E207, N-(2-methoxyethyl)-4-methyl-2-({1-[(2-methylbiphenyl-4-yl)carbonyl]piperidin-4-yl}-methyl)-2H-indazole-5-carboxamide], in test [2], the pIC50 is less than 7.30.
Take `Cc1cnc(NC(=O)C2=C(O)c3ccccc3S(=O)(=O)N2C)s1` [Meloxicam, meloxicam, reference compound]: the “Absolute implantations number” value is reported as 32* in test [3] (setting [18]); 70 in test [3] (setting [19]); 66 in test [3] (setting [20]); 54* in test [3] (setting [21]); 63* in test [3] (setting [22]). The “Implantations per animal (mean ± SD)” value in test [3] (setting [18]) was 6.4 ± 5.9; in test [3] (setting [19]), 11.7 ± 6.4; in test [3] (setting [20]) it was 11 ± 5.5; in test [3] (setting [21]), 10.8 ± 4.4; in test [3] (setting [22]), 12.6 ± 3.4.
